The target in this experiment is T1, LM1 (Leishmania major, UniProt Q4QBX1).
T1 construct: gene LMJF_22_0250; pET14, His6-tagged (kept), frame shift of original clone removed by mutagenesis; E. coli BL21 (DE3)
Description: malachite green phosphate release. Particulars: pH 6, 37°C, 100-125 μM substrate. Format: biochemical.

T1 sequence (Q4QBX1 entry or part of it): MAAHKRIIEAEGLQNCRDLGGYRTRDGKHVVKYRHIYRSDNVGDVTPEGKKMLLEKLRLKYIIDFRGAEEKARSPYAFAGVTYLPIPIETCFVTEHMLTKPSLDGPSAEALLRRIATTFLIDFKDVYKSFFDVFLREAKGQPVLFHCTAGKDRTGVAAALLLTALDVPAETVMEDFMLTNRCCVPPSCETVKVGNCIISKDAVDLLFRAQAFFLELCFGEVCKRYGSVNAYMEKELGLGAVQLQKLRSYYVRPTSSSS

`CCCCCCCC(=O)OC[C@H](COP(=O)(O)O[C@@H]1[C@H](O)[C@H](OP(=O)(O)O)[C@@H](O)[C@H](O)[C@H]1O)OC(=O)CCCCCCC` [diC8-PI(3)P]: the “malachite green phosphate release” value was “Both Lmo1935 and LM1 show also activity towards mono-phosphorylated PIs”.

The record behind these values is paper PMC3091653, “A new family of phosphoinositide phosphatases in microorganisms: identification and biochemical analysis” (BMC Genomics, 2010).
